This assay addresses T1, plasmin (Homo sapiens, UniProt P00747).
T1 construct: purchased Sigma-Aldrich (supplement); R&D Systems; host or cells: human plasma
In words: Activity-based profiling of plasmin (SDS-PAGE, streptavidin-HRP western blot). In kind it is binding. The conditions noted are these: 50 μM, 30 min, 37°C. The method, then:
Samples of recombinant protease (trypsin, plasmin, thrombin, chymotrypsin, or HNE, as indicated in the relevant figure legends) were treated with each of the newly synthesized compounds at a concentration of 50 μM, for 30 min, at 37°C. A control sample (no ABP) was prepared by treating the recombinant protease with solvent vehicle (DMF) only, used to prepare the stock solution of each ABP. Samples were also pre-treated (±90°C for 30 min) before being incubated with each putative ABP. With trypsin and thrombin, further samples were prepared where Z-Arg^P-(OPh)2 or NAP559, respectively, was added 30 min prior to the addition of the ABP under examination. All treated samples were then denatured with SDS containing reducing treatment buffer (10 min at 95°C), followed by resolution by SDS-PAGE and subjected to Western blotting. Resolved proteins were then transferred onto the nitrocellulose membrane and labeled with streptavidin-HRP. The ABP–protease complex was then visualized following treatment with Luminata Forte HRP substrate.
FIGURE 8 Activity Based Profiling of Trypsin-like serine proteases. (A) trypsin was treated (±) with NAP830, for 30 min, at 37°C (± pretreatment with Z-Arg^P-(OPh)2). (B) thrombin (1 […]) was pre-treated with various concentrations of NAP559 (30 min, at 37°C) followed by treatment (±) with NAP858 for 30 min, at 37°C. (C) Plasmin was treated in turn with QUBTL1, NAP962 and NAP830, (± pre-heat inactivation at 95°C, for 10 min) for 30 min, at 37°C. […]
Following transfer, the extra protein binding sites on the membrane were blocked by addition of 3% (w/v) BSA in TBST (20 mM Tris, 137 mM NaCl, 1% (v/v) Tween 20, pH 7.6) and agitated gently at room temperature for 30 minutes. The biotin-labelled proteases were then detected by addition of Streptavidin-HRP (Vector Laboratories) in 3% (w/v) BSA in TBST at a concentration of 1:20000, for 1 hour at room temperature. […]

The structures appear in SMILES notation.

T1 sequence (P00747 581-810 limits assumed): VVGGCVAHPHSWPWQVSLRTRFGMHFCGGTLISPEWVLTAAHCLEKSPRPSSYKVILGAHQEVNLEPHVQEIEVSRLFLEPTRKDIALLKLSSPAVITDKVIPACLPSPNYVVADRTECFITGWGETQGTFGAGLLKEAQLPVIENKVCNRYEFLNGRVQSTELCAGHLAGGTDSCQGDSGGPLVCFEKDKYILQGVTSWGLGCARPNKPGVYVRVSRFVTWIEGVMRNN
T1 sequence (P00747 97-580 partner limits assumed): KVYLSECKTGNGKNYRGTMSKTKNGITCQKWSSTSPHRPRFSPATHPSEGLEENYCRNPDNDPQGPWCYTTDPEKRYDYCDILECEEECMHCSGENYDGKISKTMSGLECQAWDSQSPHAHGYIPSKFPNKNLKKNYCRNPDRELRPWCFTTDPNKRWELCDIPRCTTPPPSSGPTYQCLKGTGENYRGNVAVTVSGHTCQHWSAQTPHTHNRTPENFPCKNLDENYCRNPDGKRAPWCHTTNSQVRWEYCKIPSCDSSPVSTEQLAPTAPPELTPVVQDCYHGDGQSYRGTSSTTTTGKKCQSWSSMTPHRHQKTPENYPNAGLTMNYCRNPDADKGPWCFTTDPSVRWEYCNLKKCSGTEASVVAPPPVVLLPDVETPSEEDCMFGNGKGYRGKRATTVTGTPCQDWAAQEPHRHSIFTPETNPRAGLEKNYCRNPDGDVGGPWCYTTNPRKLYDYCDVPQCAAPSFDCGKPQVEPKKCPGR

With `NCCCCN(CC(=O)NCC(=O)NCC(=O)NCCCOCCOCCOCCCNC(=O)CCCCC1SCC2NC(=O)NC21)C(=O)ON1C(=O)CCC1=O` (stereo not drawn) [NAP830, Succinimidoyl-CO-NLys-Gly-Gly-PEG-Biotin], the “labelling of plasmin by ABP (western blot)” value is “A band corresponding to the light (catalytic) chain of plasmin (26 kDa) was visible”.

With `CC(C)N(CC(=O)NCCCOCCOCCOCCCNC(=O)CCCCC1SCC2NC(=O)NC21)C(=O)CN(Cc1ccccc1)C(=O)CN(CCCCN)C(=O)ON1C(=O)CCC1=O` (centres unmarked) [NAP962, Succinimidoyl-CO-NLys-NPhe-NVal-PEG-Biotin], the “labelling of plasmin by ABP (western blot)” value is “A band corresponding to the light (catalytic) chain of plasmin (26 kDa) was visible”.

Values taken from PMC9555310, “Novel inhibitors and activity-based probes targeting serine proteases” (Frontiers in Chemistry, 2022).
